Among the data in PubChem BioAssay AID328 (DTP/NCI, 2004) are T/C values, retold here.

SMILES strings stand for the structures. Several values for one entry are separate records, joined by “and”; a condition that tells them apart may be missing. Identical values can stand only once. Inconclusive results and toxic doses are left out.

For this test, the system named is BDF1 mice, P388 leukemia ip, median survival T/C. The experiment in a line: NCI In Vivo Anticancer Drug Screen. Data for tumor model P388 Leukemia (intraperitoneal) in B6D2F1 (BDF1) mice. The settings on record: endpoint: median survival time, higher = longer survival. The procedure: The antitumor activity of compounds was measured in mice bearing transplantable tumors. Survival or tumor size were measured and the results are expressed as the measurement made in the treated group (T) divided by the measurement made in the vehicle treated control group (C). The tumor model used in this assay is P388 Leukemia (intraperitoneal) in B6D2F1 (BDF1) mice

[1] abbreviates: dose: 100.0 mg/kg/injection, schedule: Q04DX003 (ip), vehicle: saline with Tween-80.
Where [2] appears, read: dose: 200.0 mg/kg/injection, schedule: Q04DX003 (ip), vehicle: saline with Tween-80.
Setting [3] is: dose: 400.0 mg/kg/injection, schedule: Q04DX003 (ip), vehicle: saline with Tween-80.
Where [4] appears, read: dose: 50.0 mg/kg/injection, schedule: Q01DX009 (ip), vehicle: saline.
The mark [5] stands for this setting: dose: 100.0 mg/kg/injection, schedule: Q01DX009 (ip), vehicle: saline.
[6] abbreviates: dose: 200.0 mg/kg/injection, schedule: Q01DX009 (ip), vehicle: saline.
Setting [7] is: dose: 50.0 mg/kg/injection, schedule: Q04DX003 (ip), vehicle: saline with Tween-80.
The mark [8] stands for this setting: dose: 176.0 mg/kg/injection, schedule: Q04DX003 (ip), vehicle: saline with Tween-80.
Where [9] appears, read: dose: 264.0 mg/kg/injection, schedule: Q04DX003 (ip), vehicle: saline with Tween-80.
The mark [10] stands for this setting: dose: 25.0 mg/kg/injection, schedule: Q01DX009 (ip), vehicle: saline.
The mark [11] stands for this setting: dose: 100.0 mg/kg/injection, schedule: Q04DX003 (ip), vehicle: saline.
Setting [12] is: dose: 200.0 mg/kg/injection, schedule: Q04DX003 (ip), vehicle: saline.
Where [13] appears, read: dose: 50.0 mg/kg/injection, schedule: Q01DX009 (ip), vehicle: saline with Tween-80.
The mark [14] stands for this setting: dose: 100.0 mg/kg/injection, schedule: Q01DX009 (ip), vehicle: saline with Tween-80.
[15] abbreviates: dose: 200.0 mg/kg/injection, schedule: Q01DX009 (ip), vehicle: saline with Tween-80.
The mark [16] stands for this setting: dose: 12.5 mg/kg/injection, schedule: Q01DX009 (ip), vehicle: saline.

Take `O=S(=O)(Nc1cc(S(=O)(=O)c2ccccc2)c(O)c2ccccc12)c1ccccc1`: the T/C is 90 % of control (dose: 75.0 mg/kg/injection, schedule: Q01DX001 (ip), vehicle: saline with Tween-80); 90 % of control (dose: 150.0 mg/kg/injection, schedule: Q01DX001 (ip), vehicle: saline with Tween-80); 100 % of control (dose: 300.0 mg/kg/injection, schedule: Q01DX001 (ip), vehicle: saline with Tween-80).

In the case of `CCCCc1c2c(nn1C(=O)C=C(C)C)C(=O)C=C(Nc1ccccc1)C2=O`, the T/C is 99 % of control under setting [1], 95 % of control under setting [2] and 103 % of control under setting [3].

For `CCOC1(CC)CN(Cc2ccccc2)CCO1` (stereo unspecified), the T/C by setting is: (dose: 100.0 mg/kg/injection, schedule: Q01DX001 (ip), vehicle: Klucel (hydroxypropylcellulose) (HPC)) 121 % of control; (dose: 200.0 mg/kg/injection, schedule: Q01DX001 (ip), vehicle: Klucel (hydroxypropylcellulose) (HPC)) 121 % of control; (dose: 400.0 mg/kg/injection, schedule: Q01DX001 (ip), vehicle: Klucel (hydroxypropylcellulose) (HPC)) 115 % of control.

Take `O=[N+]([O-])c1ccc(N(CCO)CCO)c2c1no[n+]2[O-]`: the T/C was 112 % of control (dose: 7.5 mg/kg/injection, schedule: Q01DX009 (ip), vehicle: saline with Tween-80); 112 % of control (dose: 15.0 mg/kg/injection, schedule: Q01DX009 (ip), vehicle: saline with Tween-80); 113 % of control (dose: 30.0 mg/kg/injection, schedule: Q01DX009 (ip), vehicle: saline with Tween-80); 160 % of control (dose: 32.0 mg/kg/injection, schedule: Q04DX003 (ip), vehicle: saline with Tween-80); 121 % of control (dose: 64.0 mg/kg/injection, schedule: Q04DX003 (ip), vehicle: saline with Tween-80).

As to `C[C@@H]1C[C@@]2(C)[C@@H](CC[C@@H]3[C@@H]2CC[C@]2(C)[C@@H](O)CC[C@@H]32)CC1=O`, the T/C (dose: 6.25 mg/kg/injection, schedule: Q01DX009 (ip), vehicle: Klucel (hydroxypropylcellulose) (HPC)) was 109 % of control; the T/C (dose: 12.5 mg/kg/injection, schedule: Q01DX009 (ip), vehicle: Klucel (hydroxypropylcellulose) (HPC)) was 109 % of control; the T/C (dose: 25.0 mg/kg/injection, schedule: Q01DX009 (ip), vehicle: Klucel (hydroxypropylcellulose) (HPC)) is 109 % of control.

Consider `NC(=O)c1ncc(-c2ccccc2)[nH]c1=O`, for which the T/C is 104 % of control under setting [4], 100 % of control under setting [5] and 109 % of control under setting [6].

Take `Cc1ccc(NC(=O)c2ccccc2)cc1[As]=[As]c1cc(NC(=O)c2ccccc2)ccc1C` (stereo unspecified): the T/C is 150 % of control (dose: 1.25 mg/kg/injection, schedule: Q01DX009 (ip), vehicle: gum acacia); 122 % of control (dose: 1.25 mg/kg/injection, schedule: Q04DX003 (ip), vehicle: gum acacia); 113 % of control (dose: 2.2 mg/kg/injection, schedule: Q04DX003 (ip), vehicle: gum acacia); 165 % of control (dose: 2.5 mg/kg/injection, schedule: Q01DX009 (ip), vehicle: gum acacia); 116 % of control (dose: 3.3 mg/kg/injection, schedule: Q04DX003 (ip), vehicle: Klucel (hydroxypropylcellulose) (HPC)); 104 % of control (dose: 5.0 mg/kg/injection, schedule: Q04DX003 (ip), vehicle: Klucel (hydroxypropylcellulose) (HPC)). The T/C (dose: 10.0 mg/kg/injection, schedule: Q04DX003 (ip), vehicle: gum acacia) is 154 % of control.

Take `O=c1c2ccccc2sc2c(CO)ccc(NCCN3CCCCC3)c12`: the T/C by setting is: under setting [7], 101 % of control; under setting [1], 101 % of control; under setting [8], 115 % of control; under setting [2], 110 % of control; under setting [9], 123 % of control; (dose: 600.0 mg/kg/injection, schedule: Q04DX003 (ip), vehicle: saline with Tween-80) 180 % of control.

As to `OC(CNc1ccc(CSc2ccccc2)cc1)c1ccccc1` (stereo unspecified), the T/C by setting is: (dose: 50.0 mg/kg/injection, schedule: Q01DX009 (ip), vehicle: other) 120 % of control; (dose: 100.0 mg/kg/injection, schedule: Q01DX009 (ip), vehicle: other) 123 % of control.

In the case of `O=C(Nc1ccc(S(=O)(=O)O)cc1)c1ccc([N+](=O)[O-])cc1`, the T/C under setting [10] is 100 % of control; the T/C under setting [4] is 100 % of control; the T/C under setting [5] is 100 % of control; the T/C under setting [11] was 100 % of control; the T/C under setting [8] was 100 % of control; the T/C under setting [12] was 100 % of control. The T/C is 110 % of control under setting [9]; 95 % of control and 120 % of control (dose: 264.0 mg/kg/injection, schedule: Q04DX003 (ip), vehicle: saline); 100 % of control under setting [3].

As for `CC1(C)OCC(/C=C/C=N/Nc2ccc([N+](=O)[O-])cc2)O1` (stereo unspecified), the T/C was 105 % of control (dose: 100.0 mg/kg/injection, schedule: Q01DX001 (ip), vehicle: saline with Tween-80) and 110 % of control (dose: 200.0 mg/kg/injection, schedule: Q01DX001 (ip), vehicle: saline with Tween-80).

In the case of `COc1ccccc1CC(C)N` (stereo unspecified), the T/C runs as follows: (dose: 20.0 mg/kg/injection, schedule: Q01DX009 (ip), vehicle: saline with Tween-80) 87 % of control; (dose: 80.0 mg/kg/injection, schedule: Q01DX009 (ip), vehicle: saline with Tween-80) 91 % of control.

`COc1ccc(CNCCc2ccc(O)c(OC)c2)cc1O`: the T/C under setting [13] was 100 % of control, the T/C under setting [14] was 102 % of control and the T/C under setting [15] was 107 % of control.

Take `CCOC(=O)CCSc1ccccc1`: the T/C (dose: 25.0 mg/kg/injection, schedule: Q04DX003 (ip), vehicle: saline with Tween-80) is 98 % of control and the T/C under setting [7] is 95 % of control.

`CC(=O)[O][Hg][c]1c(C)c(C)cc(C)c1C`: the T/C runs as follows: under setting [16], 108 % of control; under setting [10], 121 % of control.

As for `CNC(C)Cc1ccccc1OC` (stereo unspecified), the T/C under setting [16] was 89 % of control; the T/C under setting [10] was 89 % of control; the T/C (dose: 25.0 mg/kg/injection, schedule: Q04DX003 (ip), vehicle: saline) is 88 % of control; the T/C under setting [4] is 92 % of control; the T/C (dose: 50.0 mg/kg/injection, schedule: Q04DX003 (ip), vehicle: saline) was 92 % of control.

`CCCCSc1ncnc2c1ncn2C1CCCCO1` (stereo unspecified): the T/C was 90 % of control (dose: 100.0 mg/kg/injection, schedule: Q01DX009 (ip), vehicle: saline sonified); 87 % of control under setting [1]; 122 % of control (dose: 200.0 mg/kg/injection, schedule: Q01DX009 (ip), vehicle: saline sonified); 100 % of control under setting [2]; 100 % of control (dose: 400.0 mg/kg/injection, schedule: Q01DX009 (ip), vehicle: saline sonified); 100 % of control under setting [3].

As to `COc1cc(/C=N\NC(C)=O)cc(OC)c1OC`, the T/C is, setting by setting: under setting [7], 100 % of control; under setting [1], 90 % of control; under setting [2], 90 % of control.

For the molecule `Cc1ccc(NCCN2CCOCC2)c2c(=O)c3ccccc3sc12`, the T/C runs as follows: under setting [5], 90 % of control; under setting [11], 110 % of control; under setting [6], 109 % of control; under setting [12], 110 % of control; (dose: 400.0 mg/kg/injection, schedule: Q01DX009 (ip), vehicle: saline) 122 % of control; (dose: 400.0 mg/kg/injection, schedule: Q04DX003 (ip), vehicle: saline) 110 % of control.

In the case of `O=c1[nH]c(=O)n(C2CC(O)C(CO)O2)cc1Br` (stereo unspecified), the T/C was 100 % of control (dose: 100.0 mg/kg/injection, schedule: Q04DX003 (ip), vehicle: saline sonified); 100 % of control (dose: 200.0 mg/kg/injection, schedule: Q04DX003 (ip), vehicle: saline sonified); 100 % of control (dose: 400.0 mg/kg/injection, schedule: Q04DX003 (ip), vehicle: saline sonified).

Take `COc1ccc(COC(=O)NC(CCS(C)=O)C(=O)O)cc1` (stereo unspecified): the T/C runs as follows: under setting [13], 91 % of control; under setting [14], 99 % of control; under setting [15], 99 % of control.
